According to patent US3985779A, “M-phenoxyphenyl propionic acid derivatives and preparation thereof” (Eisai Co., Ltd., priority 1973, dated 1976):

Tested on: edema induced with the various inflammatory agents
Assay: Inhibitory activity on edema induced with the various inflammatory agents (Experiments A-G, summary)
Format: in vivo, rats
Settings: compared with Fenoprofen and Ibuprofen
Description: From the abovementioned Experiments A - G, it has been found the followings: […]

CC(C(=O)O)c1cccc(Oc2ccccc2Cl)c1 (stereo not shown) [Compound (5), 2-[m-(o-chlorophenoxy)phenyl]propionic acid]
anti-inflammatory activity (in words): most effective as the anti-inflammatory agent
